Values after ≈ are worked out from the molar mass of the structure shown.

The subject of series [1] is Mycobacterium tuberculosis. The experiment in a line: Antitubercular activity against Mycobacterium tuberculosis RCMB 010126 clinical isolate after 4 days by microplate alamar blue assay. Type of series: functional. The conditions noted are these: for MIC: Mycobacterium tuberculosis, RCMB 010126, 96 h.
Series [2] has as its system Staphylococcus aureus. Description: Antibacterial activity against Staphylococcus aureus RCMB 010028 assessed as diameter of zone inhibition after 24 hrs by agar well diffusion assay. Format: functional.
The test system of series [3] is Staphylococcus aureus. Description: Antibacterial activity against Staphylococcus aureus RCMB 010028 after 24 hrs by serial dilution method. Type of series: functional. The conditions noted are these: RCMB 010028, 24 h.
Series [4] has as its system Pseudomonas aeruginosa. The experiment in a line: Antibacterial activity against Pseudomonas aeruginosa RCMB 010043 assessed as diameter of zone inhibition after 24 hrs by agar well diffusion assay. Type of series: functional.
The subject of series [5] is Escherichia coli. The experiment in a line: Antibacterial activity against Escherichia coli RCMB 010052 assessed as diameter of zone inhibition after 24 hrs by agar well diffusion assay. Format: functional.
The test system of series [6] is Pseudomonas aeruginosa. The experiment in a line: Antibacterial activity against Pseudomonas aeruginosa RCMB 010043 after 24 hrs by serial dilution method. Type of series: functional. The conditions noted are these: RCMB 010043, 24 h.
Series [7] concerns Escherichia coli. The experiment in a line: Antibacterial activity against Escherichia coli RCMB 010052 after 24 hrs by serial dilution method. The conditions noted are these: RCMB 010052, 24 h. Type of series: functional.
The test system of series [8] is Aspergillus fumigatus. The experiment in a line: Antifungal activity against Aspergillus fumigatus RCMB 02568 after 24 hrs by serial dilution method. Type of series: functional. The conditions noted are these: RCMB 02568, 24 h.
Series [9] has as its system Aspergillus fumigatus. Description: Antifungal activity against Aspergillus fumigatus RCMB 02568 assessed as diameter of zone inhibition after 48 hrs by agar well diffusion assay. Type of series: functional.
Series [10] has as its system Candida albicans. The experiment in a line: Antifungal activity against Candida albicans RCMB 05036 assessed as diameter of zone inhibition after 48 hrs by agar well diffusion assay. Format: functional.
Series [11] deals with Candida albicans. Description: Antifungal activity against Candida albicans RCMB 05036 after 24 hrs by serial dilution method. Conditions: RCMB 05036, 24 h. Format: functional.
In a further series the test system is Mycolicibacterium aurum. The experiment in a line: Antitubercular activity against Mycobacterium aurum infected in mouse RAW264.7 cells measured after 48 hrs. Format: functional.
Series [12] is described as follows: Cytotoxicity against mouse RAW264.7 cells. Type of series: cell-based.
Series [13] in a line: Selectivity index, ratio of GI50 for mouse RAW264.7 cells to MIC for Mycobacterium aurum infected in mouse RAW264.7 cells. Type of series: toxicity, cell-based. Conditions: read-out: Selectivity Index.
Series [14] relates to Aspergillus fumigatus. Description: Potency index, ratio of amphotericin B MIC to compound MIC for antifungal activity against Aspergillus fumigatus RCMB 02568. Type of series: functional.
Series [15] concerns Pseudomonas aeruginosa. The experiment in a line: Potency index, ratio of ciprofloxacin MIC to compound MIC for Pseudomonas aeruginosa RCMB 010043. Format: functional.
The subject of series [16] is Escherichia coli. The experiment in a line: Potency index, ratio of ciprofloxacin MIC to compound MIC for Escherichia coli RCMB 010052. Format: functional.
Series [17] is described as follows: Stability in mouse RAW264.7 cells measured after 48 hrs. Format: ADME, cell-based. The conditions noted are these: raw264.7, 48 h.
Series [18] deals with Mycobacterium tuberculosis. Description: Potency index, ratio of isoniazid MIC to compound MIC for antitubercular activity against Mycobacterium tuberculosis RCMB 010126 clinical isolate. Format: functional.
Series [19] concerns Staphylococcus aureus. Description: Potency index, ratio of ciprofloxacin MIC to compound MIC for Staphylococcus aureus RCMB 010028. Format: functional.

`CCOC(=O)c1sc(/N=C2\NC(=O)/C(=C3/C(=O)N(Cc4ccccc4)c4ccccc43)S2)nc1C`: the “inhibition (INH)” value in series [1] was found to be 87.38%. Further, the minimal inhibitory concentration (MIC) in series [1] came out at 0.39 µg/mL (≈ 0.773 µM); in the series on Staphylococcus aureus [3] it was 1.95 µg/mL (≈ 3.86 µM); with Pseudomonas aeruginosa [6], 1.95 µg/mL (≈ 3.86 µM); in the series on Escherichia coli [7], 0.98 µg/mL (≈ 1.94 µM); in the series on Aspergillus fumigatus [8] it was 0.98 µg/mL (≈ 1.94 µM); against Candida albicans [11], 0.49 µg/mL (≈ 0.971 µM). The compound also gave a minimal inhibitory concentration (MIC) against Mycolicibacterium aurum of 200 µg/mL (≈ 396 µM). Moreover, the “diameter of the inhibition zone (DIZ)” value in the series with Staphylococcus aureus [2] was 24.2 mm; in the series on Pseudomonas aeruginosa [4], 23.1 mm; with Escherichia coli [5] it was 24.8 mm; with Aspergillus fumigatus [9], 23.2 mm; with Candida albicans [10] it was 25.2 mm. Also, the 50% growth inhibitory concentration (GI50) in [12] is 500 µg/mL (≈ 991 µM). Further, the selectivity ratio in series [13] stood at 2.5. Further, the Ratio in the series with Aspergillus fumigatus [14], in the series with Pseudomonas aeruginosa [15] and with Escherichia coli [16] was 2 in each case. Besides, the Stability result in series [17] was “Stable”.

For the compound `CCOC(=O)c1sc(/N=C2\NC(=O)/C(=C3/C(=O)Nc4ccc(OC)cc43)S2)nc1C`, the “inhibition (INH)” value in [1] was 84.35%. For the same compound, the MIC in series [1] is 0.39 µg/mL (≈ 0.877 µM); against Staphylococcus aureus [3], 0.98 µg/mL (≈ 2.2 µM); with Pseudomonas aeruginosa [6] it was 1.95 µg/mL (≈ 4.39 µM); in the series on Escherichia coli [7], 0.98 µg/mL (≈ 2.2 µM); in the series on Aspergillus fumigatus [8], 1.95 µg/mL (≈ 4.39 µM); against Candida albicans [11], 0.98 µg/mL (≈ 2.2 µM). Further, in the series on Mycolicibacterium aurum, the minimal inhibitory concentration (MIC) was > 200 µg/mL. Also, the “diameter of the inhibition zone (DIZ)” value in the series with Staphylococcus aureus [2] came to 22.7 mm; in the series with Pseudomonas aeruginosa [4], 22.1 mm; in the series with Escherichia coli [5], 22.6 mm; in the series on Aspergillus fumigatus [9] it was 22.1 mm; in the series on Candida albicans [10], 23.3 mm. Further, in [12], the GI50 is > 62.5 µg/mL. The selectivity ratio in series [13] was < 0.312. Moreover, the Ratio (in series [18]; with Staphylococcus aureus [19]; in the series on Pseudomonas aeruginosa [15]; in the series on Escherichia coli [16]) was 2 each time. The Stability result in series [17] is “Stable”.

As for `CCOC(=O)c1sc(/N=C2\NC(=O)/C(=C3/C(=O)Nc4ccccc43)S2)nc1C`, the “inhibition (INH)” value in [1] is on record as 72.14%. Also, the minimal inhibitory concentration (MIC) in series [1] is 0.78 µg/mL (≈ 1.88 µM); against Staphylococcus aureus [3] it was 0.98 µg/mL (≈ 2.36 µM); in the series on Pseudomonas aeruginosa [6], 1.95 µg/mL (≈ 4.7 µM); in the series on Escherichia coli [7], 1.95 µg/mL (≈ 4.7 µM); against Aspergillus fumigatus [8] it was 0.98 µg/mL (≈ 2.36 µM); against Candida albicans [11] it was 0.98 µg/mL (≈ 2.36 µM). In the series on Mycolicibacterium aurum, this compound had a minimal inhibitory concentration (MIC) of 100 µg/mL (≈ 241 µM). Also, the “diameter of the inhibition zone (DIZ)” value turned out to be 22.5 mm with Staphylococcus aureus [2]; 21.8 mm with Pseudomonas aeruginosa [4]; 22.4 mm with Escherichia coli [5]; 21.6 mm with Aspergillus fumigatus [9]; 22.7 mm in the series with Candida albicans [10]. Besides, in series [12], the concentration for 50% growth inhibition (GI50) came out at 125 µg/mL (≈ 302 µM). The selectivity ratio in series [13] was 1.25. In addition, the Ratio with Aspergillus fumigatus [14] and with Pseudomonas aeruginosa [15] was 2 in each case. For the same compound, the Stability entry in series [17] is “Stable”.

For the compound `CCOC(=O)c1sc(/N=C2\NC(=O)/C(=C3/C(=O)N(C)c4ccccc43)S2)nc1C`, the “inhibition (INH)” value in series [1] is reported as 76.35%. In addition, the MIC was determined as 0.39 µg/mL (≈ 0.91 µM) in series [1]; 1.95 µg/mL (≈ 4.55 µM) against Staphylococcus aureus [3]; 1.95 µg/mL (≈ 4.55 µM) with Pseudomonas aeruginosa [6]; 1.95 µg/mL (≈ 4.55 µM) against Escherichia coli [7]; 1.95 µg/mL (≈ 4.55 µM) in the series with Aspergillus fumigatus [8]; 0.98 µg/mL (≈ 2.29 µM) against Candida albicans [11]. Besides, it took 200 µg/mL (≈ 467 µM) to inhibit growth in the series with Mycolicibacterium aurum (MIC). Besides, the “diameter of the inhibition zone (DIZ)” value in the series with Staphylococcus aureus [2] was 21.8 mm; in the series on Pseudomonas aeruginosa [4], 21.5 mm; in the series with Escherichia coli [5], 21.5 mm; with Aspergillus fumigatus [9], 21.6 mm; in the series on Candida albicans [10] it was 22.4 mm. Further, growth in series [12] was halved (GI50) at 500 µg/mL (≈ 1170 µM). The selectivity ratio in [13] is 2.5. For the same compound, in the series on Pseudomonas aeruginosa [15], the Ratio stood at 2. The Stability entry in series [17] is listed as “Stable”.
